Laboratory results taken from patent US20030143228A1, “Human telomerase reverse transcriptase as a class-II restricted tumor-associated antigen” (Baylor College of Medicine, priority 2001, published 2003).
“Also recorded” adds a separate entry of the source.

What was measured:
Format in all cases: cell-based, human
[1] = test system: Donor's peripheral blood mononuclear cells (PBMCs); test: Peptide T-cell proliferation assay with donor PBMC; settings: peptide 20 μg/ml; positive if cpm at least 2.5 times PBMC without peptide
Procedure: Donor's peripheral blood mononuclear cells (PBMCs) were plated in 96-well plates (Costar) at 200,000 cells/well in AIM-V media (Gibco). Peptides were added into each well at the concentration of 20 μg/ml. After a week of incubation, the culture medium was removed and cells were resuspended in AIM-V media, seeded onto test plates and re-stimulated with autologous irradiated (2,000-6,000 rads) PBMC pulsed with the same peptides used in the primary stimulation (20 μg/ml). On day 2 of the re-stimulation, [^3H]-thymidine (1 uCi/well) was added to the test plates, and its incorporation by T-cells was measured on day 3. […] T-cell clones were established from positive T-cell lines by limiting dilution.
Because Th cells generally prefer to recognize peptides of about 15 residues in length, ten predicted peptides corresponding to promiscuous binding motifs of 15 mer or longer were synthesized and purified (Table 2). Human T-cell responses to these peptides were assessed by isolating PBMC from HLA-typed healthy donors with HLA-DR1, DR3, DR15, or other alleles and seeding them into 96-well plates that were subsequently stimulated with each peptide. After a week of stimulation, the cultures were tested for their capacity to respond to the peptides presented by autologous PBMC.

[2] = test system: peptide-specific CD4+ T-cell clones; test: Specificity and MHC restriction of peptide-specific T-cell clones (antibody blocking)
Procedure: The T916-positive T-cell clone, T631-positive T-cell or T672-positive T-cell (2×10^4 cells/well) were re-stimulated with autologous PBMC-derived DC (1×10^3/well) (Zhou et al., 1996) pulsed with T916, T631, T672 or irrelevant 15-mer peptides derived from HER-2 (SEQ.ID.NO.78, LSTDVGSCTLVCPLH) and EBV (SEQ.ID.NO.79, AYFMVFLQTHIFAEV) at the same concentration of 20 μg/ml in the presence of anti-HLA-DR (G46.4), anti-HLA-ABC (class I, G46.2.6), anti-CD4, or anti-CD8 (20 μg/ml, BD PharMingen). 48-72 hr later, GM-CSF release and [^3H]-thymidine incorporation of the T-cells were measured.
Further, antibody blocking assays were used to test whether the T-cell responses to peptides were MHC class II-restricted. […] Flow cytometric analysis of the responses to T-cell clones (FIG. 14A-FIG. 14F) confirmed clones were CD4-positive and CD 8-negative.

[3] = test system: peptide-specific CD4+ T-cell clones; test: Peptide titration of T-cell clones; settings: autologous PBMCs
Procedure: To evaluate the avidity of hTRT916 and hTRT672 T-cell clones for their ligands, peptide titration curves were generated with autologous PBMCs. The maximal cell proliferation of the hTRT916 T-cell clone was obtained at a peptide concentration of 10 μg/ml, compared with only at a peptide concentration of 1 μg/ml for the hTRT672 T-cell clone (FIG. 7).
Yet further, the avidity of the hTRT631 T-cell clone for its ligand was also evaluated. Peptide titration curves were generated with autologous PBMCs. The half maximal cell proliferation of the hTRT631 T-cell clone was obtained at a peptide concentration of 0.1 μg/ml (FIG. 8).
The effectiveness of antitumor immunotherapy based on CD8+ and CD4+ T-cells depends on the ability of the latter to recognize naturally processed antigen presented by APC. This property depends in turn on correct processing of the epitope in the MHC class II pathway and the avidity of the epitope for its MHC/TCR-complex (Kobayashi, 2000). To determine whether the newly identified peptides were naturally processed antigens, the avidity of the specific T-cell clones for their ligands was evaluated. Peptide titration curves were generated with autologous DC as APC. For peptides hTRT631, hTRT766, hTRT787, the peptide concentrations required to obtain half of the maximal proliferation exceeded 1.0 μM (FIG. 15A-FIG. 15F).

recombinant hTRT protein = test: T-cell recognition of natively processed hTRT protein presented by autologous DC
Text: A recombinant hTRT protein and an irrelevant Neu protein were produced and used to pulse PBMC-derived DC. Recombinant hTRT and Neu(extracellular domain)-Fc fusion proteins, were produced in SF9 insect cells by use of a baculovirus expression system (Gibco), purified by affinity binding to Protein A (Sigma), and tested by Western blot analysis with anti-hTRT (Santa Cruz) or anti-Neu (Oncogene) antibodies, respectively.
The T916-specific T-cells, T631-specific T-cells or T672-specific T-cells (2×10^4/well) were stimulated with irradiated autologous PBMC-derived DC (Zhou et al., 1996) (2×10^3/well) pulsed with recombinant hTRT-Fc proteins (1 μg/ml) in the presence or absence of anti-HLA-DR antibodies (20 μg/ml). The T-cell clones were also stimulated with DC pulsed with irrelevant recombinant Neu-Fc proteins (1 μg/ml). Recombinant hTRT Fc fusion proteins and Neu (extracellular domain)-Fc proteins were produced from […], purified with a Protein-A purification kit (Pierce), and confirmed by Western blot analysis with anti-hTRT (Santa Cruz) or anti-Neu (Oncogene) antibodies. 48 hr later, [^3H]-thymidine incorporation of the T-cells was then measured.
The ability of these T-cell clones to recognize naturally processed antigen in the form of recombinant hTRT protein was tested in experiments in which autologous PBMC or DC were used as APC and recombinant hTRT proteins as a source of antigen (FIG. 16).

HLA-DR7+/hTRT+ LCL cells = test: T-cell direct responses to hTRT-positive cells
Procedure: The T-cells (5×10^3/well) were co-cultured with the irradiated HLA-DR7+/hTRT+ LCL cells (1×10^4/well) in the presence or absence of the anti-HLA-DR antibody (20 μg/ml). IFN-γ production of the T-cells was monitored by ELISPOT assay and cell proliferation was measured by [^3H]-thymidine incorporation compared with anti-DR sample.

T-cell clone = test: Flow cytometric analysis of T-cell clones; settings: peptide-specific T-cell clone, anti-CD4-FITC / CD8-PE staining
Text: The T-cell clone was double-stained with anti-human CD4-FITC and CD8-PE antibodies or isotype controls (mouse IgG-FITC and IgG-PE) (BD PharMingen). The cells were then examined by flow cytometric analysis (Chen et al., 1997). More than 99% of the T-cell population were CD4-positive. Flow cytometric analysis verified that the T-cell clones were exclusively CD4-positive (FIG. 9A and FIG. 9B). Similar results were obtained from four different T916-specific T-cell clones. Taken together, the findings indicate that HLA-DR7-restricted epitopes reside in clones 8 and 35 and induce hTRT-specific human CD4+ T-cell responses.

[4] = test system: T-cells primed by the pool 5-transduced DC; test: DC-based immunogenetic screening of tumor retrogen library, [3H]-thymidine incorporation; settings: T-cells 2×10^5, DC 2×10^4
Procedure: cDNA from the mRNA of prostate tumor cells (DU145) were generated by cDNA synthesis kits (CLONTECH). cDNA with sizes of 400 bp or higher were digested with Sau3A I (Bio-Lab) after fractionation with SizeSep™ 400 columns (Amersham Pharmacia Biotech) and inserted into the BamH I-cut pSBFc-DS. Ligated DNA was then transformed into E. coli, and library quality was confirmed by examining dozens of individual clones with different insert sizes and DNA sequences. Individual colonies were then cultured individually and pooled for the isolation of plasmid DNA. Recombinant retroviral retrogen vectors (pools) were generated by transfection of the plasmid DNA pools into packaging cells with GeneJammer (Stratagene). Two or three days later, the culture medium containing the retroviral vectors was harvested, filtered, and then used for DC transduction or stored at −80° C.
DC-based immunogenetic screening approach was used to identify unknown class II-restricted TAA from a tumor retrogen library.
After several rounds of screening of 12,000 individual clones in the library, two sub-pools (5-VI-C and -D) containing genes capable of stimulating CD4+ T-cells were identified. The 40 individual clones in the sub-pools 5-VI-C and -D were individually transduced into autologous CD34+-derived DC. […]

Molecule | proliferative T-cell responses from the donors' T-cells [1] | response of T-cells to autologous PBMC pulsed with peptide [2] | response of the peptide-specific T-cells to irrelevant peptides ([2]; irrelevant 15-mer peptides (HER-2, EBV/EBNA1) or non-corresponding hTRT peptides, 20 μg/ml) | restriction of T-cell response (antibody blocking) ([2]; peptide-pulsed autologous APC with anti-HLA-DR, anti-HLA class I, anti-HLA-DQ, anti-CD4 or anti-CD8 antibodies) | peptide concentration at maximal cell proliferation of the T-cell clone [3] [µg/mL] | epitope classification (naturally processed or cryptic) (recombinant hTRT protein) | response of peptide-specific T-cells to irrelevant Neu protein presented by autologous DC (recombinant hTRT protein; Neu-Fc 1 μg/ml) | recognition of hTRT protein after processing and presentation by autologous APC (recombinant hTRT protein; peptide-specific T-cell clone, DC or PBMC pulsed with recombinant hTRT protein) | response of peptide-specific CD4+ T-cells to hTRT+/DR7+ LCL (HLA-DR7+/hTRT+ LCL cells; IFN-γ ELISPOT and [3H]-thymidine incorporation) | effect of anti-HLA-DR antibody on T-cell response to hTRT+/DR7+ LCL (HLA-DR7+/hTRT+ LCL cells; antibody 20 μg/ml) | response of peptide-specific CD4+ T-cells to hTRT+ LCL (DR3+) (HLA-DR7+/hTRT+ LCL cells; different class II genotype) | T-cell population CD4-positive (T-cell clone) | T-cell response to autologous DC transduced with individual clones [4]
GTAFVQMPAHGLFPW [Peptide T916] | elicited proliferative T-cell responses | dosage-dependent manner | did not respond | both CD4- and HLA-DR-restricted; also recorded: MHC-II restricted epitopes | 10 | are processed | did not respond | recognize the hTRT proteins | active proliferation and production of INF-γ | drastically inhibited | did not respond | More than 99% | –
clone 35: positive clone of the DU145 tumor retrogen library; ORF encodes a 171 aa hTRT polypeptide (SEQ.ID.NO.4) (nucleic acid, Human) DNA: ATCCCGCAGGGCTCCATCCTCTCCACGCTGCTCTGCAGCCTGTGCTACGGCGACATGGAGAACAAGCTGTTTGCGGGGATTCGGCGGGACGGGCTGCTCCTGCGTTTGGTGGATGATTTCTTGTTGGTGACACCTCACCTCACCCACGCGAAAACCTTCCTCAGGACCCTGGTCCGAGGTGTCCCTGAGTATGGCTGCGTGGTGAACTTGCGGAAGACAGTGGTGAACTTCCCTGTAGAAGACGAGGCCCTGGGTGGCACGGCTTTTGTTCAGATGCCGGCCCACGGCCTATTCCCCTGGTGCGGCCTGCTGCTGGATACCCGGACCCTGGAGGTGCAGAGCGACTACTCCAGCTATGCCCGGACCTCCATCAGAGCCAGTCTCACCTTCAACCGCGGCTTCAAGGCTGGGAGGAACATGCGTCGCAAACTCTTTGGGGTCTTGCGGCTGAAGTGTCACAGCCTGTTTCTGGATTTGCAGGTGAACAGCCTCCAGACGGTGTGCACCAACATCTACAAG | – | – | – | – | – | – | – | – | – | – | – | – | strong T-cell response
clone 8: positive clone of the DU145 tumor retrogen library; ORF encodes a 291 aa hTRT polypeptide (SEQ.ID.NO.3) (nucleic acid, Human) DNA: ATCCTGGCCAAGTTCCTGCACTGGCTGATGAGTGTGTACGTCGTCGAGCTGCTCAGGTCTTTCTTTTATGTCACGGAGACCACGTTTCAAAAGAACAGGCTCTTTTTCTACCGGAAGAGTGTCTGGAGCAAGTTGCAAAGCATTGGAATCAGACAGCACTTGAAGAGGGTGCAGCTGCGGGAGCTGTCGGAAGCAGAGGTCAGGCAGCATCGGGAAGCCAGGCCCGCCCTGCTGACGTCCAGACTCCGCTTCATCCCCAAGCCTGACGGGCTGCGGCCGATTGTGAACATGGACTACGTCGTGGGAGCCAGAACGTTCCGCAGAGAAAAGAGGGCCGAGCGTCTCACCTCGAGGGTGAAGGCACTGTTCAGCGTGCTCAACTACGAGCGGGCGCGGCGCCCCGGCCTCCTGGGCGCCTCTGTGCTGGGCCTGGACGATATCCACAGGGCCTGGCGCACCTTCGTGCTGCGTGTGCGGGCCCAGGACCCGCCGCCTGAGCTGTACTTTGTCAAGGTGGATGTGACGGGCGCGTACGACACCATCCCCCAGGACAGGCTCACGGAGGTCATCGCCAGCATCATCAAACCCCAGAACACGTACTGCGTGCGTCGGTATGCCGTGGTCCAGAAGGCCGCCCATGGGCACGTCCGCAAGGCCTTCAAGAGCCACGTCTCTACCTTGACAGACCTCCAGCCGTACATGCGACAGTTCGTGGCTCACCTGCAGGAGACCAGCCCGCTGAGGGATGCCGTCGTCATCGAGCAGAGCTCCTCCCTGAATGAGGCCAGCAGTGGCCTCTTCGACGTCTTCCTACGCTTCATGTGCCACCACGCCGTGCGCATCAGGGGCAAGTCCTACGTCCAGTGCCAGGGG | – | – | – | – | – | – | – | – | – | – | – | – | strong T-cell response
